Results from patent publication US20200055808A1, “COMPOSITION FOR USE IN DETECTING AN ALLERGY TO CLAVULANIC ACID” (SERVICIO ANDALUZ DE SALUD, priority 2016, published 2020).

Legend:
[1] = tested on: basophils; assay: Basophil activation test (BAT) by flow cytometry; assay type: cell-based, human; conditions: for BAT result (stimulation index): 5, 1 and 0.2 mM, 25 patients selective for CLV and 15 tolerant controls, positive at the highest concentration, FIG. 3; for stimulation indices in patients compared to controls: 8, 4, 2, 1 mM, 7 patients positive for Clav 2 vs 6 controls, p=0.003 Clav 2 and p=0.015 Clav 5 at 8 mM, p=0.015 Clav 2 at 4 mM, FIG. 5
Excerpt: The “basophil activation test” or “BAT” is an in vitro functional test which detects the activation of basophils after a stimulus with a specific antigen by detecting the expression of cell surface activation markers, which is usually monitored by flow cytometry using fluorescent monoclonal antibodies. Therefore, this test is used for the in vitro diagnosis of allergies. The technique comprises several steps: drawing blood and preparing the solution or suspension, performing stimulation with allergen(s), performing cellular marking with fluorescent antibodies which discriminate activated basophils, and performing counting in a flow cytometer. The technique can be carried out using as the substrate whole blood or the buffy coat previously isolated from the whole blood sample.
The BAT was performed as described by Torres M J et al. (Torres M J, et al. Clin Exp Allergy 2004; 34:1768-75) with CLV (Sigma Aldrich, Saint Louis, USA). […] The cells were stained with monoclonal antibodies, anti-CD63-FITC, CD203c-PE, CCR3-APC (Caltag Laboratories, Burlingame, Calif.), and measured in a FACSCalibur flow cytometer (Becton-Dickinson Bioscience, San José, Calif.) acquiring at least 500-1000 basophils per sample. The results were analyzed with FlowJo® software (Tree Star, Inc. USA), and the activation was expressed as a stimulation index (SI), calculated as the ratio between the percentage of activated basophils (CD63+ or CD203c+cells) in samples stimulated with different haptenes and non-stimulated sample. To calculate the SI, the percentage of spontaneously activated basophils was required to be equal to or greater than 5%, as described by Sanz M L et al. (Sanz M L, et al. Clin Exp Allergy 2002; 32:277-86).

[2] = tested on: IgE-mediated basophil activation pathway; assay: BAT with wortmannin (WTM) inhibition of the IgE-mediated basophil activation pathway; assay type: cell-based, human; conditions: WTM 1 μM; 8 mM: p=0.002 Clav2, p=0.001 Clav 5; 4 mM: p=0.001 both; FIG. 7
Procedure: To confirm that the activation of basophils was mediated by IgE, the inhibitory effect of wortmannin at 1 μM was analyzed. Wortmannin acts as a specific inhibitor of phosphatidylinositol 3-kinase (Pl3-K), which has proven to be one of the most important FceRI receptor-activated kinases involved in human basophil IgE-mediated stimulation. This was used with the positive control (anti-IgE) and the different haptenes and synthesized structures at the same concentrations described above.

[3] = 15 tolerant subjects, cutoff SI CLV >1.5, Clav 2 >3 (ROC curves), FIG. 4
[4] = 25 patients selective for CLV, cutoff SI CLV >1.5, Clav 2 >3 (ROC curves), FIG. 4
[5] = 6 tolerant controls, same cutoff point, FIG. 6
[6] = 7 patients positive for Clav 2 in the preceding test, same cutoff point, FIG. 6

Row | SMILES | percentage of positive cases in BAT [1, 3] | percentage of positive cases in BAT [1, 4] | BAT result (stimulation index) ([1]; first phase) | percentage of positive cases in BAT [1, 5] | percentage of positive cases in BAT [1, 6] | stimulation indices in patients compared to controls [1] | stimulation index in patients compared to the tolerant controls ([1]; first phase, 25 patients selective for CLV vs 15 tolerant controls, p<0.0001 (Mann-Whitney)) | basophil activation after prior incubation with WTM [2]
1 | O=C(O)[C@H]1/C(=C/CO)O[C@@H]2CC(=O)N21 [CLV, (3R,5R,Z)-2-(2-hydroxyethylidene)-7-oxo-1-oxa-4-aza-bicyclo[3.2.0]heptane-3-carboxylic acid, reference compound] | 13.3% | 24% | – | – | – | – | – | –
2 | CCCCNC(=O)CC(OC)OC [Clav 1, N-butyl-3,3-dimethoxypropanamide] | – | – | only Clav 2 provided positive results | – | – | – | – | –
3 | CC(C)COC(=O)OC(=O)CC(=O)OC(=O)OCC(C)C [Clav 2, bis-((isobutoxycarbonyl)oxy)-1,3-dioxopropanoic anhydride] | 33.3% | 56% | positive results | no positive case | 85.7% | higher stimulation indices | significantly higher | IgE-mediated and specific
4 | CCCCNC(=O)CCN [Clav 3, 3-amino-N-butylpropanamide] | – | – | only Clav 2 provided positive results | – | – | – | – | –
5 | NCCC(=O)O [Clav 4, 3-aminopropanoic acid] | – | – | only Clav 2 provided positive results | – | – | – | – | –
6 | CCOC(CC(=O)OC(=O)CC(OCC)OCC)OCC [Clav 5, 3,3-diethoxypropanoic anhydride] | – | – | – | 28.6% | 71.4% | higher stimulation indices | – | IgE-mediated and specific
